Experimental data from ChEMBL document CHEMBL3132769, “Fragment growing to retain or alter the selectivity of anchored kinase hinge-binding fragments” (Medchemcomm, 2014).

What was measured:
[1] = molecular target: T1, Serine/threonine-protein kinase Nek2 (Homo sapiens) (UniProt P51955); test: Inhibition of human full length NEK2 expressed in baculovirus assessed as substrate phosphorylation using fluorescence-labelled peptides as substrate at 95 uM after 90 mins by microfluidic peptide phosphorylation assay
T1 sequence (whole entry): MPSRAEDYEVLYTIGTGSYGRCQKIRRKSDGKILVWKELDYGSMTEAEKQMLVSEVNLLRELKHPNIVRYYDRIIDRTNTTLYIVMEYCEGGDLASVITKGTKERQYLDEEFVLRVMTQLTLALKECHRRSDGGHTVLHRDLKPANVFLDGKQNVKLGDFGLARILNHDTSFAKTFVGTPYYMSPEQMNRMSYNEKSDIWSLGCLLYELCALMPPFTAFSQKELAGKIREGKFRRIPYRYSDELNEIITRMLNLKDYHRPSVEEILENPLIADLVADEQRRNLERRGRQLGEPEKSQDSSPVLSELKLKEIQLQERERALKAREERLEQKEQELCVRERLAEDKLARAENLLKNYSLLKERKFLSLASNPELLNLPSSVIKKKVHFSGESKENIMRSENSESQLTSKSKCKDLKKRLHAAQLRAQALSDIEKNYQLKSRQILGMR

[2] = molecular target: T2, Serine/threonine-protein kinase Chk1 (Homo sapiens) (UniProt O14757); test: Inhibition of human full length CHK1 expressed in baculovirus assessed as substrate phosphorylation using fluorescence-labelled peptides as substrate at 0.06 uM after 90 mins by microfluidic peptide phosphorylation assay
T2 sequence (whole entry): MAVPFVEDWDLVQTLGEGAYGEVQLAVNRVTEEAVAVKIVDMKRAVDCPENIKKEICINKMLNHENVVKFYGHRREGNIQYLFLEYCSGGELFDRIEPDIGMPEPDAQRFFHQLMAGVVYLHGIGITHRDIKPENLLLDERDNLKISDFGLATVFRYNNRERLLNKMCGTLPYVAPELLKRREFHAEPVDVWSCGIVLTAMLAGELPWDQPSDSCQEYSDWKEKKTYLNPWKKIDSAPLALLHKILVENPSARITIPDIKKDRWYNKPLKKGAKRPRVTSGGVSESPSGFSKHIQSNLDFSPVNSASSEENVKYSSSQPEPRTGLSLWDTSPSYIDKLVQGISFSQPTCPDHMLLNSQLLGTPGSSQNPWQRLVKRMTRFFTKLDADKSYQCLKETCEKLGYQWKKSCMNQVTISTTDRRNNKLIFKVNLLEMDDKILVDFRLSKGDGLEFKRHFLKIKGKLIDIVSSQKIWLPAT

[3] = test system: T3, Receptor-type tyrosine-protein kinase FLT3 (Homo sapiens), P36888 [D835Y]; test: Inhibition of human FLT3 D835Y mutant catalytic domain expressed in baculovirus assessed as substrate phosphorylation using fluorescence-labelled peptides as substrate at 0.1 uM after 90 mins by microfluidic peptide phosphorylation assay
T3 sequence (whole entry): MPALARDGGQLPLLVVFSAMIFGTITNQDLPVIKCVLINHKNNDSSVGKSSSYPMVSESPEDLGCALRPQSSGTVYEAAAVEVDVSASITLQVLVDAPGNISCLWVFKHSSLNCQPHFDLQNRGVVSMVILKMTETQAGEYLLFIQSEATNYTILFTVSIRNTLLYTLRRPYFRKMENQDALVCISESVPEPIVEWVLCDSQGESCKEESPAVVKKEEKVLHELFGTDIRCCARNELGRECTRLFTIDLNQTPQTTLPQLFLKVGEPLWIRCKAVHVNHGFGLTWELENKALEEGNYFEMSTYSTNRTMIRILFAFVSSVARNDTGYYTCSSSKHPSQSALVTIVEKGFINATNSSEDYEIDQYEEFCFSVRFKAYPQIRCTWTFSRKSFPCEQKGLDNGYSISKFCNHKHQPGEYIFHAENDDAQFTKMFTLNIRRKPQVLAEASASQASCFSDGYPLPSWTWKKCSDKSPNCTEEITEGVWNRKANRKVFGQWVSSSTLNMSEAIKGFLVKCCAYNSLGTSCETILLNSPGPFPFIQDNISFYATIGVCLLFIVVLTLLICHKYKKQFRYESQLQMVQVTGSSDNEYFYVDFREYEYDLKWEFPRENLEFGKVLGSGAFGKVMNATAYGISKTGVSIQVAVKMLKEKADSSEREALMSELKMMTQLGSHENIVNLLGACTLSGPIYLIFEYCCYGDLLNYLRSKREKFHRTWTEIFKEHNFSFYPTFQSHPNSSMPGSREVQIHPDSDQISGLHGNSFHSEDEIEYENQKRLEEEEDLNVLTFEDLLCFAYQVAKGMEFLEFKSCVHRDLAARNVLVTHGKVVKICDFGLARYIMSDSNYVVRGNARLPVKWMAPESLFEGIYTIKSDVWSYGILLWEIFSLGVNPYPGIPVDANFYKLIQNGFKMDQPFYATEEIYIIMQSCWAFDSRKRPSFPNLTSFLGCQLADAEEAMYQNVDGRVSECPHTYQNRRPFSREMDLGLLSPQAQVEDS

[4] = molecular target: Tyrosine-protein kinase ABL2 (Homo sapiens) (UniProt P42684); test: Inhibition of human truncated Arg expressed in baculovirus assessed as substrate phosphorylation using fluorescence-labelled peptides as substrate at 0.1 uM after 90 mins by microfluidic peptide phosphorylation assay
[5] = molecular target: T4, Serine/threonine-protein kinase Sgk1 (Homo sapiens) (UniProt O00141); test: Inhibition of human truncated SGK1 expressed in baculovirus assessed as substrate phosphorylation using fluorescence-labelled peptides as substrate at […] after 90 mins by microfluidic peptide phosphorylation assay
T4 sequence (whole entry): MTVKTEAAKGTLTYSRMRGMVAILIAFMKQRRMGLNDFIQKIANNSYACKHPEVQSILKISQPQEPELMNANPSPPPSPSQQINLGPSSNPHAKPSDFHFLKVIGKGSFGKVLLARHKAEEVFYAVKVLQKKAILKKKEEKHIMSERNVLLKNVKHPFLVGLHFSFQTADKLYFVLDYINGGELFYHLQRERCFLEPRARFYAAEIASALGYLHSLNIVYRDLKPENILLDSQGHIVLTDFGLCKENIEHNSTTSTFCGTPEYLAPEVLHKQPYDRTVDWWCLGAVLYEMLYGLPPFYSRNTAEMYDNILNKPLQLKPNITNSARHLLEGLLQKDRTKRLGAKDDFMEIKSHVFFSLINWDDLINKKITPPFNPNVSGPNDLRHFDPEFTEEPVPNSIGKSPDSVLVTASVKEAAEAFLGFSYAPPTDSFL

[6] = molecular target: Tyrosine-protein kinase Fer (Homo sapiens) (UniProt P16591); test: Inhibition of human FER catalytic domain expressed in baculovirus assessed as substrate phosphorylation using fluorescence-labelled peptides as substrate at 420 uM after 90 mins by microfluidic peptide phosphorylation assay
[7] = molecular target: Ribosomal protein S6 kinase alpha-5 (Homo sapiens) (UniProt O75582); test: Inhibition of human full length MSK1 expressed in baculovirus assessed as substrate phosphorylation using fluorescence-labelled peptides as substrate at 420 uM after 90 mins by microfluidic peptide phosphorylation assay
[8] = test system: T3, Receptor-type tyrosine-protein kinase FLT3 (Homo sapiens), P36888 [D835Y]; test: Inhibition of human FLT3 D835Y mutant catalytic domain expressed in baculovirus assessed as substrate phosphorylation using fluorescence-labelled peptides as substrate at 8 uM after 90 mins by microfluidic peptide phosphorylation assay

Sequence of Tyrosine-protein kinase Fer (Homo sapiens) (P16591 whole entry, looked up, the tested form may be a part): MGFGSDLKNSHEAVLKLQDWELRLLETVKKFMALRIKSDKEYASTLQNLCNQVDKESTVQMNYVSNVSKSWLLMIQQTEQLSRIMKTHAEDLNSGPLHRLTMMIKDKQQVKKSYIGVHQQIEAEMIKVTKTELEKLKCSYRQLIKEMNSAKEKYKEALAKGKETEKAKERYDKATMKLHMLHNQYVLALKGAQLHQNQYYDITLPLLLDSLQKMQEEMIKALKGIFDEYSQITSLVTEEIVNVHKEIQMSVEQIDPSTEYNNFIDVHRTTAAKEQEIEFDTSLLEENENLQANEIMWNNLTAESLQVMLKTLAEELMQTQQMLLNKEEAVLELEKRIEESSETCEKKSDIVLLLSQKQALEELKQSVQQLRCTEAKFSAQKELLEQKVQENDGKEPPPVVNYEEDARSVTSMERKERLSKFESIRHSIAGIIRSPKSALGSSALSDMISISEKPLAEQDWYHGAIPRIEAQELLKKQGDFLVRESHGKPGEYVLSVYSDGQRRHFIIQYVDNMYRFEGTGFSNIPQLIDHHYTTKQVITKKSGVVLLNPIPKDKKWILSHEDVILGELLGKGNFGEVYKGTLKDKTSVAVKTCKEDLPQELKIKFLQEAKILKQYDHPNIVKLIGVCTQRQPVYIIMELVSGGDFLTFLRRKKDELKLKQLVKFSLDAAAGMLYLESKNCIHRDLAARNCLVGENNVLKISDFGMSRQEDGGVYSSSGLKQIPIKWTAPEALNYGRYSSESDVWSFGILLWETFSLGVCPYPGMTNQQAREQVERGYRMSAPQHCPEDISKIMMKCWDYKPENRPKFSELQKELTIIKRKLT
Sequence of Tyrosine-protein kinase ABL2 (Homo sapiens) (P42684 whole entry, the tested form may be a part): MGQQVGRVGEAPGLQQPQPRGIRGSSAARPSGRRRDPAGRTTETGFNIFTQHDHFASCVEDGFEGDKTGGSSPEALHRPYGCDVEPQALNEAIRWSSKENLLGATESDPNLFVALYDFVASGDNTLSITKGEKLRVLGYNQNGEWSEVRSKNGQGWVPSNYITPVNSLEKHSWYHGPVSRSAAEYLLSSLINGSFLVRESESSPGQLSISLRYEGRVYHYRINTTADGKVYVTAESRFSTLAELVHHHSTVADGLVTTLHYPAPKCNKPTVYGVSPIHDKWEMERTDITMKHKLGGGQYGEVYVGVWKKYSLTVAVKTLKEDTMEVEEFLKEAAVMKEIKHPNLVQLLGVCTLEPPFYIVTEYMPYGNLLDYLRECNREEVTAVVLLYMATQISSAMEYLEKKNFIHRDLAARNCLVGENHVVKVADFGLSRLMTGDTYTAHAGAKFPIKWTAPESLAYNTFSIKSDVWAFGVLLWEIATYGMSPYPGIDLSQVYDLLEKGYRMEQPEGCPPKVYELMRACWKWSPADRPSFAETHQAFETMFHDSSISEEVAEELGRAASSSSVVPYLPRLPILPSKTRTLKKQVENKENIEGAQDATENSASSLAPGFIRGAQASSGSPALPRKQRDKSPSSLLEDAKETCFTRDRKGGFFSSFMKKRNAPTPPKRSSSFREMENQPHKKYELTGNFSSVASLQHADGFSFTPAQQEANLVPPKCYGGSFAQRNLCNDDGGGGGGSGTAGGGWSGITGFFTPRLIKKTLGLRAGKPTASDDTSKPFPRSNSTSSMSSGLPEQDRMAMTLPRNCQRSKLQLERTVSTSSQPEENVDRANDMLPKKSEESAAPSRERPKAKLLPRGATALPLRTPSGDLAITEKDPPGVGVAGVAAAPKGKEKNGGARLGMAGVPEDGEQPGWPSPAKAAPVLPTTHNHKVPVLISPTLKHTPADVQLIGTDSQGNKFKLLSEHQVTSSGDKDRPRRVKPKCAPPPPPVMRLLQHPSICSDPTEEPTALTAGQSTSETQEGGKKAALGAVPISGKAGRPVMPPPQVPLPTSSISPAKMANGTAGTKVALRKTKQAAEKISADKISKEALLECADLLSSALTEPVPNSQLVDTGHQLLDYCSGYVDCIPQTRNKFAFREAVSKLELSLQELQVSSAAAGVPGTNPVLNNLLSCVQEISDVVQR
Sequence of Ribosomal protein S6 kinase alpha-5 (Homo sapiens) (O75582 whole entry, looked up, the tested form may be a part): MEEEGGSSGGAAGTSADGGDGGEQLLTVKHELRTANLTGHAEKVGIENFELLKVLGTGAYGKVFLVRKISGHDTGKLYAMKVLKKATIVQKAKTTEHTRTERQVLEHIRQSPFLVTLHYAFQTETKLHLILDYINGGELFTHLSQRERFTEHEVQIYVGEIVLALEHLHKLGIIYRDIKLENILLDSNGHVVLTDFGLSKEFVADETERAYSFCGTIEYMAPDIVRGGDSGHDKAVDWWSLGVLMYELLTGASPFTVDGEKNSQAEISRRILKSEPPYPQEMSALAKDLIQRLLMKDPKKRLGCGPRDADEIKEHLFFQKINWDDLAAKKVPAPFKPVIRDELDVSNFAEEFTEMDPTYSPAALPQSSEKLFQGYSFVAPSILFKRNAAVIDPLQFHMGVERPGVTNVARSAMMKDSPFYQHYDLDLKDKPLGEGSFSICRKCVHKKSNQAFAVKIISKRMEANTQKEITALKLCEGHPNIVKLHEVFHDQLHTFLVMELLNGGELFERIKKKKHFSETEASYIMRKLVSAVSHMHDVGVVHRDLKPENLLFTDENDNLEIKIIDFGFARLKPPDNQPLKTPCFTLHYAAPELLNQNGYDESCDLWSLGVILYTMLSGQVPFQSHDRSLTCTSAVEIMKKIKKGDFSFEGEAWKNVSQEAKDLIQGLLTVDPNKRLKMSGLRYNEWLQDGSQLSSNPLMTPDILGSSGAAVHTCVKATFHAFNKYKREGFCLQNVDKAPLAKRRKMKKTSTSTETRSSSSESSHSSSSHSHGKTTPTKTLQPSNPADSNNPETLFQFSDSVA

NCCc1ccc(-c2ncnc3[nH]cnc23)cc1
inhibition [1]: 0%

NC1(Cc2ccc(Cl)cc2)CCN(c2ncnc3[nH]ccc23)CC1
inhibition [2]: 0%

C[C@H](CN(C)C)Oc1nc(Nc2cc3cccc(Cl)c3cn2)cnc1C#N
inhibition [3]: 27% | inhibition [4]: 1.5%

COC(=O)c1cnc(Nc2cnc(C#N)cn2)cc1NCC1CCNCC1
inhibition [5]: 4.5%

c1nc(N2CCOCC2)c2nc[nH]c2n1
inhibition [6]: 70.5% | inhibition [7]: 78.5%

NCC1CCN(c2ncnc3[nH]ccc23)CC1
inhibition [8]: 4.5%
